Earlier results as cited in US8598325B2, “Solid-phase microextraction coatings and methods for their preparation” (priority 2002, dated 2013).
Read-outs that look alike come from different tables or passages of the source.

How the values were obtained:
[1] = not given; remark: listed apart in the source
[2] = at 25° C.

SMILES	LogP (pH 7)	Sol. in water [1]	Vapour Pressure [2]	LogP (at pH 7, 20° C.)
CCCCC(O)(Cn1cncn1)c1ccc(Cl)cc1Cl (centres unmarked) [Hexaconazole, hexaconazole]	3.9			
CCCC(Cn1cncn1)c1ccc(Cl)cc1Cl (centres unmarked) [Penconazole, penconazole]	3.72	73 mg/L	0.366 mPa	
CC(C)(C)C(=O)C(Oc1ccc(Cl)cc1)n1cncn1 (centres unmarked) [Triadimefon, triadimefon]		70 mg/L	0.02 mPa	3.18
CC(C)(C)C(O)C(Oc1ccc(Cl)cc1)n1cncn1 (centres unmarked) [Triadimenol, triadimenol]	3.18			
